{
  "source": "patent US6087336A",
  "about": "“Peptide derivatives useful in treating autoimmune diseases” (Zeneca Limited, priority 1996, dated 2000)",
  "key": {"HLA-DR4Dw14": {"test_system": "HLA-DR4Dw14", "test": "Variant to Test A: peptide selectivity binding assay, HLA-DR4Dw14", "design": "species or system Human", "description": "(§1) As a variant to test A, the ability of a peptide of the invention to bind to one or more HLA-DR molecules was assessed as follows:\n(§2) (i) Purification of HLA-DR Types from Cell Lines\n(§3) The method used was a modification of that described by Gorga et al, 1987, J.Biol.Chem. 262, 16087-16094. Human HLA-DR antigens were purified from various cell lines by immunoaffinity chromatography. […] Protein content was determined by a Biorad protein assay and purity by SDS-PAGE electrophoresis. […]\n(§4) 200 nM biotin-FHA307-320 in phosphate buffered saline (PBS) was incubated with either purified HLA-DR1, DR2, DR4Dw4, DR4Dw13 or DR4Dw14, (2-20μg/ml) in V-well microtitre plates (Nunc) with or without inhibitor peptides in assay buffer (PBS, 0.01% NP40 (Sigma.)) For DR3 inhibition, 400 nM Biotin-Ahx-(D)Ala-Ala-Ala-Che-lle-Ala-Ala-Ala-Thr-Leu-Lys-Ala-Ala-(D)Ala-OH was incubated with purified DR3 (20 μg/ml.), and incubated as above. After 48 hours, the incubates were treated, and absorbance readings taken as described in Test A. The inhibitory activity of peptides, expressed as IC50 values, was calculated using Microcal Origin software on a PC."}, "HLA-DR3": {"target": "HLA-DR3", "test": "Variant to Test A: peptide selectivity binding assay, HLA-DR3", "design": "species or system Human", "conditions": "did not bind significantly", "description": "as §1, §2, §3, §4"}, "HLA-DR1": {"target": "T1, HLA-DR1 (Homo sapiens, UniProt P01903+P01911, A100R/D57E/F55L/F60I/F76Y/I96L/L162R/M171V/P40L/Q125E/R42F/V115G/Y59C)", "T1 construct": "Human HLA-DR antigens were purified from various cell lines; endogenous in cells; host or cells: Hom 2 cell line", "test": "Variant to Test A: peptide selectivity binding assay, HLA-DR1", "description": "as §1, §2, §3, §4"}, "HLA-DR4Dw4": {"target": "T2, HLA-DR4Dw4 (Homo sapiens, UniProt P01903+P01911, A100K/A169T/F76Y/I96L/K127E/L162R/M171V/N62H/P40V/Q125Y/R42H/S133A/S149N/S66Y/V115G/V209L/W38E)", "T2 construct": "a cDNA encoding the β chain is cloned into the transfer vector pAcUW1; made in house; host or cells: Sf21 insect cells, double-recombinant baculovirus", "test": "Variant to Test A: peptide selectivity binding assay, HLA-DR4Dw4", "description": "as §1, §2, §3, §4"}, "HLA-DR2": {"test_system": "HLA-DR2", "test": "Variant to Test A: peptide selectivity binding assay, HLA-DR2", "design": "species or system Human", "description": "as §1, §2, §3, §4"}},
  "data": [
    {"substance": "Phv-Ala-Arg-Ala-IIb-Ala-Arg-Ala-Papa-NH2 [Example 23]", "values": [
      {"measurement": "binding to HLA-DR4Dw14", "setting": "HLA-DR4Dw14", "result": "bind significantly"},
      {"measurement": "IC50", "setting": "HLA-DR3", "result": "> 100", "unit": "µM"},
      {"measurement": "binding to HLA-DR1", "setting": "HLA-DR1", "result": "bind significantly"},
      {"measurement": "binding to HLA-DR4Dw4", "setting": "HLA-DR4Dw4", "result": "bind significantly"},
      {"measurement": "binding to HLA-DR2", "setting": "HLA-DR2", "result": "bind significantly"}
    ]}
  ]
}
